We go through four compounds from article PMC11656708, “PHP-Family Diesterase from Novosphingobium with Broad Specificity and High Catalytic Efficiency against Organophosphate Flame-Retardant Derived Diesters” (Biochemistry, 2024).

Test [1] deals with T1, Sb-PDE.
T1 construct: synthetic gene, recombinant, purified to homogeneity; trinuclear zinc site
In words: UV/vis Michaelis-Menten kinetics. It counts as biochemical, Sphingobium sp. TCM1. The text has this:
UV/vis Michaelis-Menten kinetics on Sb-PDE

For test [2], the system named is T2, No-PDE.
T2 construct: synthetic gene, recombinant, purified to homogeneity; trinuclear zinc site
Briefly: UV/vis Michaelis-Menten kinetics. In kind it is biochemical, Novosphingobium sp. EMRT-2. The source says:
UV/vis Michaelis-Menten kinetics on No-PDE

The subject of test [3] is T2, No-PDE. Briefly: steady-state kinetics. It counts as biochemical, Novosphingobium sp. EMRT-2. The source says:
steady-state kinetics on No-PDE

For test [4], the system named is T1, Sb-PDE. It counts as biochemical, Sphingobium sp. TCM1. The source says: steady-state kinetics on Sb-PDE

Read-outs that look alike come from different tables or passages of the source.

In the case of `O=[N+]([O-])c1ccc(OP(=O)(O)Oc2ccc([N+](=O)[O-])cc2)cc1` [compound 1, bis-p-nitrophenyl phosphate], the values for the Km in the test with Sb-PDE [1] and with No-PDE [2] were 140 µM and 620 µM, respectively. On to `O=P(O)(Oc1ccccc1)Oc1ccccc1` [compound 2, diphenyl phosphate], for which the Km in the test on Sb-PDE [1] was determined as 900 µM; with No-PDE [2], 2300 µM.

With `O=[N+]([O-])c1ccc(OP(=O)(O)O)cc1` [compound 11, p-nitrophenyl phosphate], the Km in the test with No-PDE [3] stood at 1400 µM; in the test with Sb-PDE [4] it was 140 µM.

Consider `O=P(O)(O)Oc1ccccc1` [compound 12, phenyl phosphate], for which, in the test on Sb-PDE [4], the Km worked out at 1400 µM.

The Km is the concentration of substrate that gives half-maximal velocity.
